In patent US4175081A, “5-Substituted thiadiazole ureas” (priority 1977, dated 1979):

Experiments:
Crabgrass (CG) [1] = assay: Post-emergence herbicide test; type: in vivo, Digitaria sanquinalis; details: Digitaria sanguinalis, post-emergence, 336 h, two weeks after treatment; for pest or weed control at 4483.4 g/ha: 4 lb/acre; for pest or weed control: 2 lb/acre
Method: (§1) Crabgrass (CG)--Digitaria sanquinalis
(§2) All crop and weed species were planted individually in 3' plastic pots containing potting soil. Four seeds each of corn, cotton, and snapbeans were seeded to a depth equal to the diameter of the seed. All other species were surface seeded and sprinkled with screened soil in an amount sufficient to cover the seed. Immediately after planting, all pots were watered by sub-irrigation in greenhouse trays. Pots for the pre-emergence phase were seeded one day before treatment.
(§3) Planting dates for the post-emergence phase were varied so that all seedlings would reach the desired stage of development simultaneously. The proper stage of seedling development for treatment in the post-emergence phase is as follows:
(§4) Spray hood constants required to deliver the above volume are as follows:
(§5) Formulations for spray applications were prepared in 50 ml volumes with the following three components: […]
(§6) Spray applications were made in a hood containing a removable belt and fixed spray nozzle. For passage through the spray hood, one pot of each specie (pre-emergence phase) was placed on the rear half of the flat. Treatments were removed to the greenhouse after spraying. Watering during the observation period was done only by sub-irrigation.
(§7) Two weeks after treatment, pre- and post-emergence injury or control was visually rated, and the results were as shown in the following tables. Pre-emergence data are provided in TABLE III and post-emergence data are provided in TABLE IV, for compounds having the formula illustrated in TABLE I. Correspondingly, pre-emergence and post-emergence data, respectively, are set forth in TABLES V AND VI, for compounds having the formula illustrated in TABLE II.

Johnson grass (JG) [2] = assay: Post-emergence herbicide test; type: in vivo, Sorgum helepense; details: Sorghum halepense, 336 h, two weeks after treatment; for pest or weed control at 4483.4 g/ha: 4 lb/acre
Method: (§8) Johnson grass (JG)--Sorgum helepense
as §2, §3
(§9) Compounds were tested at rates of application equivalent to 8 lbs. of actual compound per acre in a spray volume of 38 gallons per acre. Spray hood constants required to deliver the above volume are as follows:
(§10) Formulations for spray applications were prepared in 50 ml volumes with the following three components:
(§11) Formulations for the 4 lbs/acre rate were prepared by adjusting the amount of active ingredient accordingly.
as §6, §7

Barnyard grass (BG) [3] = assay: Post-emergence herbicide test; type: in vivo; details: Echinochloa crus-galli, 336 h, two weeks after treatment; for pest or weed control at 4483.4 g/ha: 4 lb/acre
Method: (§12) Barnyard grass (BG)--Echinochloa crus-galli
as §2, §3, §9, §10, §11, §6, §7

Amaranth pigweed (PW) [4] = assay: Post-emergence herbicide test; type: in vivo, Amaranthus retroflexus; details: 336 h, two weeks after treatment; for pest or weed control at 2241.7 g/ha: 2 lb/acre; for pest or weed control at 4483.4 g/ha: 4 lb/acre
Method: Amaranth pigweed (PW)--Amaranthus retroflexus
as §2, §3
(§13) Pigweed and turnips: 1 or 2 true leaves above visible cotyledons.
as §9, §10, §11, §6, §7

Turnip (TP) [5] = assay: Post-emergence herbicide test; type: in vivo, Brassica sp.; details: Brassica rapa, post-emergence, 336 h, two weeks after treatment; for pest or weed control at 2241.7 g/ha: 2 lb/acre; for pest or weed control at 4483.4 g/ha: 4 lb/acre
Method: (§14) Turnip (TP)--Brassica sp.
as §2, §3, §13, §4, §5, §6, §7

Cotton (CT) [6] = assay: Post-emergence herbicide test; type: in vivo, Gossypium hirsutum var. DPL smooth leaf; details: Gossypium hirsutum, post-emergence, 336 h, two weeks after treatment; for pest or weed control at 4483.4 g/ha: 4 lb/acre; for pest or weed control at 2241.7 g/ha: 2 lb/acre
Method: (§15) Cotton (CT)--Gossypium hirsutum var. DPL smooth leaf
as §2, §3
Cotton: first true leaf 1' in length; expanded cotyledons.
as §4, §10, §11, §6, §7

Corn (CN) [7] = assay: Post-emergence herbicide test; type: in vivo; details: Zea mays, 336 h, two weeks after treatment; for pest or weed control at 4483.4 g/ha: 4 lb/acre; for pest or weed control: 2 lb/acre
Method: as §2, §3, §9, §10, §11, §6, §7

Bean (BN) [8] = assay: Post-emergence herbicide test; type: in vivo, Phaseolus vulgaris var. Black Valentine; details: Phaseolus vulgaris, post-emergence, 336 h, two weeks after treatment; for pest or weed control at 4483.4 g/ha: 4 lb/acre; for pest or weed control at 2241.7 g/ha: 2 lb/acre
Method: (§16) Bean (BN)--Phaseolus vulgaris var. Black Valentine
as §2, §3
Beans: primary leaves expanded, growing point at primary leaf nodes.
as §4, §10, §11, §6, §7

Crabgrass (CG) [9] = assay: Pre-emergence herbicide test; type: in vivo, Digitaria sanquinalis; details: Digitaria sanguinalis, pre-emergence, 336 h, two weeks after treatment; for pest or weed control at 4483.4 g/ha: 4 lb/acre
Method: as §1, §2, §4, §5, §6, §7

Johnson grass (JG) [10] = assay: Pre-emergence herbicide test; type: in vivo, Sorgum helepense; details: Sorghum halepense, 336 h, two weeks after treatment; for pest or weed control at 4483.4 g/ha: 4 lb/acre
Method: as §8, §2, §9, §10, §11, §6, §7

Barnyard grass (BG) [11] = assay: Pre-emergence herbicide test; type: in vivo; details: Echinochloa crus-galli, 336 h, two weeks after treatment; for pest or weed control at 4483.4 g/ha: 4 lb/acre
Method: as §12, §2, §9, §10, §11, §6, §7

Turnip (TP) [12] = assay: Pre-emergence herbicide test; type: in vivo, Brassica sp.; details: Brassica rapa, pre-emergence, 336 h, two weeks after treatment; for pest or weed control at 4483.4 g/ha: 4 lb/acre
Method: as §14, §2, §4, §5, §6, §7

Cotton (CT) [13] = assay: Pre-emergence herbicide test; type: in vivo, Gossypium hirsutum var. DPL smooth leaf; details: Gossypium hirsutum, 336 h, two weeks after treatment; for pest or weed control at 4483.4 g/ha: 4 lb/acre
Method: as §15, §2, §9, §10, §11, §6, §7

Corn (CN) [14] = assay: Pre-emergence herbicide test; type: in vivo; details: Zea mays, 336 h, two weeks after treatment; for pest or weed control at 4483.4 g/ha: 4 lb/acre
Method: as §2, §9, §10, §11, §6, §7

Bean (BN) [15] = assay: Pre-emergence herbicide test; type: in vivo, Phaseolus vulgaris var. Black Valentine; details: Phaseolus vulgaris, 336 h, two weeks after treatment
Method: as §16, §2, §9, §10, §11, §6, §7

Amaranth pigweed (PW) [16] = assay: Pre-emergence herbicide test; type: in vivo, Amaranthus retroflexus; details: 336 h, 4 lb/acre, two weeks after treatment
Method: as §2, §9, §10, §11, §6, §7

| SMILES | pest or weed control at 4483.4 g/ha (Crabgrass (CG) [1]) [%] | pest or weed control at 4483.4 g/ha (Johnson grass (JG) [2]) [%] | pest or weed control at 4483.4 g/ha (Barnyard grass (BG) [3]) [%] | pest or weed control at 2241.7 g/ha (Amaranth pigweed (PW) [4]) [%] | pest or weed control at 4483.4 g/ha (Amaranth pigweed (PW) [4]) [%] | pest or weed control at 2241.7 g/ha (Turnip (TP) [5]) [%] | pest or weed control at 4483.4 g/ha (Turnip (TP) [5]) [%] | pest or weed control at 4483.4 g/ha (Cotton (CT) [6]) [%] | pest or weed control at 4483.4 g/ha (Corn (CN) [7]) [%] | pest or weed control at 4483.4 g/ha (Bean (BN) [8]) [%] | pest or weed control (Crabgrass (CG) [1]) [%] | pest or weed control at 2241.7 g/ha (Cotton (CT) [6]) [%] | pest or weed control (Corn (CN) [7]) [%] | pest or weed control at 2241.7 g/ha (Bean (BN) [8]) [%] | pest or weed control at 4483.4 g/ha (Crabgrass (CG) [9]) [%] | pest or weed control at 4483.4 g/ha (Johnson grass (JG) [10]) [%] | pest or weed control at 4483.4 g/ha (Barnyard grass (BG) [11]) [%] | pest or weed control at 4483.4 g/ha (Turnip (TP) [12]) [%] | pest or weed control at 4483.4 g/ha (Cotton (CT) [13]) [%] | pest or weed control at 4483.4 g/ha (Corn (CN) [14]) [%] | also measured |
| --- | --- | --- | --- | --- | --- | --- | --- | --- | --- | --- | --- | --- | --- | --- | --- | --- | --- | --- | --- | --- | --- |
| CNC(=O)Nc1nnc(SCc2ccc([N+](=O)[O-])cc2)s1 [Example 55] | 40 | 30 | 20 | 90 | 90 | 60 | 90 | 50 | 20 | 100 |  |  |  |  |  |  |  |  |  |  |  |
| CNC(=O)Nc1nnc(SCC(=O)OC)s1 [Example 56] | 30 | 20 | 20 |  | 60 |  | 70 | 60 | 30 | 50 |  |  |  |  |  |  |  |  |  |  |  |
| CNC(=O)Nc1nnc(C(F)(F)Cl)s1 [Example 57] |  |  |  |  |  |  |  |  |  |  |  |  |  |  |  |  |  |  |  |  | pest or weed control at 8966.8 g/ha (Crabgrass (CG) [1]; 8 lb/acre): 60%; pest or weed control at 8966.8 g/ha (Johnson grass (JG) [2]; 8 lb/acre): 40%; pest or weed control at 8966.8 g/ha (Barnyard grass (BG) [3]; 8 lb/acre): 40%; pest or weed control at 8966.8 g/ha (Amaranth pigweed (PW) [4]; 8 lb/acre): 90%; pest or weed control at 8966.8 g/ha (Turnip (TP) [5]; 8 lb/acre): 100%; pest or weed control at 8966.8 g/ha (Cotton (CT) [6]; 8 lb/acre): 90%; pest or weed control at 8966.8 g/ha (Corn (CN) [7]; 8 lb/acre): 40%; pest or weed control at 8966.8 g/ha (Bean (BN) [8]; 8 lb/acre): 100% |
| CNC(=O)Nc1nnc(SCCCCl)s1 [Example 61] | 90 | 60 | 70 | 90 | 90 | 100 | 80 | 100 | 30 | 100 | 20 | 100 | 40 | 100 |  |  |  |  |  |  | pest or weed control (Johnson grass (JG) [2]; 2 lb/acre): 20%; pest or weed control at 2241.7 g/ha (Barnyard grass (BG) [3]; 2 lb/acre): 40% |
| CCS(=O)(=O)c1nnc(NC(=O)NC)s1 [Example 81] | 100 | 100 | 80 |  |  | 100 | 100 | 100 | 50 | 100 | 100 | 90 | 100 | 100 | 90 | 40 | 60 | 80 | 100 | 0 | pest or weed control (Crabgrass (CG) [9]; 2 lb/acre): 90%; pest or weed control at 2241.7 g/ha (Johnson grass (JG) [10]; 2 lb/acre): 40%; pest or weed control at 2241.7 g/ha (Barnyard grass (BG) [11]; 2 lb/acre): 60%; pest or weed control at 2241.7 g/ha (Turnip (TP) [12]; 2 lb/acre): 80%; pest or weed control at 2241.7 g/ha (Cotton (CT) [13]; 2 lb/acre): 100%; pest or weed control at 2241.7 g/ha (Corn (CN) [14]; 2 lb/acre): 0%; pest or weed control at 2241.7 g/ha (Bean (BN) [15]; 2 lb/acre): 60%; pest or weed control at 4483.4 g/ha (Bean (BN) [15]; 4 lb/acre): 60% |
| CCCC(C)c1nnc(NC(=O)NC)s1 (stereo not shown) [Example 83] | 10 |  |  |  |  |  | 90 | 10 |  | 40 |  |  |  |  | 90 | 60 | 50 | 10 | 10 | 10 | pest or weed control at 4483.4 g/ha (Amaranth pigweed (PW) [16]): 80% |
